The text below walks through data of ChEMBL document CHEMBL4680108, “Ancistrolikokine E, a 5,8'-Coupled Naphthylisoquinoline Alkaloid, Eliminates the Tolerance of Cancer Cells to Nutrition Starvation by Inhibition of the Akt/mTOR/Autophagy Signaling Pathway” (2018).

In the experiment the test system is PANC-1. The experiment in a line: Inhibition of autophagy in human PANC-1 cells cultured in nutrient-deprived medium assessed as accumulation of LC3-2 expression at 25 uM after 6 hrs by Western blot analysis relative to control. The experiment is classed as functional. (In general: In western blotting, separated proteins are transferred to a membrane and probed.)

Turning to `CCN(CC)CCCC(C)Nc1ccnc2cc(Cl)ccc12` (stereo unspecified) [CHLOROQUINE], the “fold change (FC)” value is 2.
